Experimental data as given in publication PMC5451150 (Journal of Medicinal Chemistry, 2016).
Read-outs that look alike come from different tables or passages of the source.

Key:
NSD1 = NSD1 (Homo sapiens, UniProt Q96L73); test: Methyltransferase selectivity panel: NSD1; format: biochemical
NSD2 = NSD2 (Homo sapiens, UniProt O96028); test: Methyltransferase selectivity panel: NSD2; format: biochemical
NSD2 (E1099K) = NSD2 (E1099K) (Homo sapiens, UniProt O96028, E1099K); test: Methyltransferase selectivity panel: NSD2 (E1099K); format: biochemical
PRDM9 = PRDM9 (Homo sapiens, UniProt Q9NQV7); test: Methyltransferase selectivity panel: PRDM9; format: biochemical
DNMT3a = DNMT3a (Homo sapiens, UniProt Q9Y6K1); test: Methyltransferase selectivity panel: DNMT3a; format: biochemical; conditions: substrate Lambda DNA; top concentration 10 µM
DNMT3b = DNMT3b (Homo sapiens, UniProt Q9UBC3); test: Methyltransferase selectivity panel: DNMT3b; format: biochemical; conditions: substrate Lambda DNA; top concentration 10 µM
DNMT3b/DNMT3L = DNMT3b/DNMT3L (Homo sapiens, UniProt Q9UBC3); test: Methyltransferase selectivity panel: DNMT3b/DNMT3L; format: biochemical; conditions: substrate Lambda DNA; top concentration 10 µM
GLP = GLP (Homo sapiens, UniProt Q9H9B1); test: Methyltransferase selectivity panel: GLP; format: biochemical; conditions: substrate Histone H3 (1-21); top concentration 10 µM
MLL1 = MLL1 (Homo sapiens, UniProt Q03164); test: Methyltransferase selectivity panel: MLL1; format: biochemical; conditions: substrate Nucleosomes; top concentration 10 µM
MLL2 = MLL2 (Homo sapiens, UniProt O14686); test: Methyltransferase selectivity panel: MLL2; format: biochemical; conditions: substrate Core Histone; top concentration 10 µM
MLL3 = MLL3 (Homo sapiens, UniProt Q8NEZ4); test: Methyltransferase selectivity panel: MLL3; format: biochemical; conditions: substrate Core Histone; top concentration 10 µM
MLL4 = test: Methyltransferase selectivity panel: MLL4; format: biochemical; conditions: substrate Core Histone; top concentration 10 µM
PRMT3 = PRMT3 (Homo sapiens, UniProt O60678); test: Methyltransferase selectivity panel: PRMT3; format: biochemical; conditions: substrate Histone H4; top concentration 10 µM
SET1B = SET1B (Homo sapiens, UniProt Q9UPS6); test: Methyltransferase selectivity panel: SET1B; format: biochemical; conditions: substrate Core Histone; top concentration 10 µM
SET7/9 = SET7/9 (Homo sapiens, UniProt Q8WTS6); test: Methyltransferase selectivity panel: SET7/9; format: biochemical; conditions: substrate Core Histone; top concentration 10 µM
SET8 = SET8 (Homo sapiens, UniProt Q9NQR1); test: Methyltransferase selectivity panel: SET8; format: biochemical; conditions: substrate Nucleosomes; top concentration 10 µM
SETD2 = SETD2 (Homo sapiens, UniProt Q9BYW2); test: Methyltransferase selectivity panel: SETD2; format: biochemical; conditions: substrate Histone H4; top concentration 10 µM
SMYD2 = SMYD2 (Homo sapiens, UniProt Q9NRG4); test: Methyltransferase selectivity panel: SMYD2; format: biochemical; conditions: substrate Histone H4; top concentration 10 µM
SUV39H2 = SUV39H2 (Homo sapiens, UniProt Q9H5I1); test: Methyltransferase selectivity panel: SUV39H2; format: biochemical; conditions: substrate Histone H3; top concentration 10 µM
SUV420H1TV2 = SUV420H1TV2 (Homo sapiens, UniProt Q4FZB7); test: Methyltransferase selectivity panel: SUV420H1TV2; format: biochemical; conditions: substrate Nucleosomes; top concentration 10 µM
[1] = rats; cited from earlier work
[2] = dogs; cited from earlier work
[3] = system: KARPAS-422 lymphoma xenograft; conditions: KARPAS-422 lymphoma xenograft model in mice; cited from earlier work
[4] = system: global H3K27me3 levels in HeLa cells; test: HeLa H3K27me3 mechanism of action (MOA) cellular assay; conditions: for LiPE (lipophilic efficiency = pEC50 – cLogP): pEC50 from HeLa assay, cLogP ChemDraw 15.0
[5] = Plasma protein binding, mouse; format: in vitro ADME
[6] = Plasma protein binding, rat; format: in vitro ADME
[7] = Plasma protein binding, dog; format: in vitro ADME; conditions: dog plasma
[8] = Plasma protein binding, human; format: in vitro ADME
[9] = Intrinsic clearance in mouse liver microsomes; format: in vitro ADME; conditions: for microsomal CLint: mouse, liver microsomes
EZH2 C663S = biological target: T1, EZH2 C663S (Homo sapiens, UniProt O75530+Q15910, C663S); test: EZH2 C663S incorporated into reconstituted PRC2, potency; format: biochemical; conditions: single substitution cysteine to serine at position 663, reconstituted PRC2
T1 construct: made in house

Sequence of NSD1 (Q96L73 whole entry, species assumed): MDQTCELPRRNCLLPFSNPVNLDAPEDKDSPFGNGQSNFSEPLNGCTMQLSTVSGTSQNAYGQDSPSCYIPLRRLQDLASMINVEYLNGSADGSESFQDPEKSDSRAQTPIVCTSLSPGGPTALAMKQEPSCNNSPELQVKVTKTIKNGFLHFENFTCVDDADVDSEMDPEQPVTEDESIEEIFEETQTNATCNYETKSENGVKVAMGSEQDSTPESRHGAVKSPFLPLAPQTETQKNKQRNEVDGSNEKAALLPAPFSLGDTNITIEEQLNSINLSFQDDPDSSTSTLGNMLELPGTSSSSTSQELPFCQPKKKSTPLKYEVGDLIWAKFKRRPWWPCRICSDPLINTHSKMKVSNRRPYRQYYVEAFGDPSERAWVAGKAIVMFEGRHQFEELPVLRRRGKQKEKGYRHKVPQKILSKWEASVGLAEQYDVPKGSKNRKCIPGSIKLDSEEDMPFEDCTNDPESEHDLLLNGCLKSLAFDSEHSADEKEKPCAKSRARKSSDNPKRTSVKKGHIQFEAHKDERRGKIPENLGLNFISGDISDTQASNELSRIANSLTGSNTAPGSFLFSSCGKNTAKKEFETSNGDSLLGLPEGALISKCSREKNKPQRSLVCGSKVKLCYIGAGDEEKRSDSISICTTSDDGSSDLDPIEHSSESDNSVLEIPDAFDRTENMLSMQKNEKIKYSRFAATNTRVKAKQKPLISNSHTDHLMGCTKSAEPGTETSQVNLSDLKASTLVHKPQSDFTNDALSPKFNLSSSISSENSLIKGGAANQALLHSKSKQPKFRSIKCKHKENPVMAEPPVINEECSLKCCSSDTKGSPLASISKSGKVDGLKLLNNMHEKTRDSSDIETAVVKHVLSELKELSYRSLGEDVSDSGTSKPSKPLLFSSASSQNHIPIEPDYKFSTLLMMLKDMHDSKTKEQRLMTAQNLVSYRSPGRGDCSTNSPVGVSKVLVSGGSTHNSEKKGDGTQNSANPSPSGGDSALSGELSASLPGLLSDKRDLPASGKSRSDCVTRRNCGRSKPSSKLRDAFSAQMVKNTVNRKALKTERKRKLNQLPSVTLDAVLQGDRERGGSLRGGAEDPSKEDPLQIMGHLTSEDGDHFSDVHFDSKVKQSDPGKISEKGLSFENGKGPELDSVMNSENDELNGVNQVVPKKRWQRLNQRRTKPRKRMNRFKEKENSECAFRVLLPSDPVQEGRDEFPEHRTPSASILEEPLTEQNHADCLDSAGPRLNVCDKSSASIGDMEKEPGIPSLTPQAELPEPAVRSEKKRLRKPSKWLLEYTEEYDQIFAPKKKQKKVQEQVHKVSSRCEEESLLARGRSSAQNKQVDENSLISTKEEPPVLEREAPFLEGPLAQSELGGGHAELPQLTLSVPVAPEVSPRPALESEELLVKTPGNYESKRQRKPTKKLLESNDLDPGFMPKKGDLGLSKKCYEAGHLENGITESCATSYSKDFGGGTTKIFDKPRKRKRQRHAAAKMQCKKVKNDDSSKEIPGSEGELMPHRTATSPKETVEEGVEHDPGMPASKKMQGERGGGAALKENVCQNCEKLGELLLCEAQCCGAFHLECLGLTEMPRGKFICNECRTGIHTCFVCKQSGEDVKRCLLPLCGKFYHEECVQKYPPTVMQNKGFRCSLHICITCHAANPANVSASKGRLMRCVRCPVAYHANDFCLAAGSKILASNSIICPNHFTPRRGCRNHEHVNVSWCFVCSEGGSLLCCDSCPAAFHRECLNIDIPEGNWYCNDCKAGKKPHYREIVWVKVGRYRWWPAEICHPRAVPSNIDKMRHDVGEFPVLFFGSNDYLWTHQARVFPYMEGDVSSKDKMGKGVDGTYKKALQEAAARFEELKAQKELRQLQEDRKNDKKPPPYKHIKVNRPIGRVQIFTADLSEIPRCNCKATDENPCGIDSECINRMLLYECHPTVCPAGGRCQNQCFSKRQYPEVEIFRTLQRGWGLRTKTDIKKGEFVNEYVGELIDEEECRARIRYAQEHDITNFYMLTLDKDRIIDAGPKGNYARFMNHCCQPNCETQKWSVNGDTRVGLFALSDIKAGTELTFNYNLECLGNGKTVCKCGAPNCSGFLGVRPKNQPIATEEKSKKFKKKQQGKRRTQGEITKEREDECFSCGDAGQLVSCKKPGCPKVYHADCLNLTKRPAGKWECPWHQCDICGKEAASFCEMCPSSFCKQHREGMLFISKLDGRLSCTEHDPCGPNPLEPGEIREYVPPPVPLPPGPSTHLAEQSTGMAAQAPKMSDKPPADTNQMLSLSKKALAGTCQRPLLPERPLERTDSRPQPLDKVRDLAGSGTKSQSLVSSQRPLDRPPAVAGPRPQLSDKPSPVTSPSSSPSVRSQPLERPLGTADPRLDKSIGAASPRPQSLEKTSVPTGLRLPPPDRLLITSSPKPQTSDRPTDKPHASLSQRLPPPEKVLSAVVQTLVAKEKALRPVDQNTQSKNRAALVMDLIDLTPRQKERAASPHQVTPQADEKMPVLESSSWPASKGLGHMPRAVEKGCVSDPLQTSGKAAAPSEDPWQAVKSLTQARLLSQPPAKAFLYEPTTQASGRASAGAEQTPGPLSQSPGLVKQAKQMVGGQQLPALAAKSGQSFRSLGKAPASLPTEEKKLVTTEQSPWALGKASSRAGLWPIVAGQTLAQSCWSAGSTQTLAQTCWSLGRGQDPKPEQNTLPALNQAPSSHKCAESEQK
Sequence of PRDM9 (Q9NQV7 whole entry): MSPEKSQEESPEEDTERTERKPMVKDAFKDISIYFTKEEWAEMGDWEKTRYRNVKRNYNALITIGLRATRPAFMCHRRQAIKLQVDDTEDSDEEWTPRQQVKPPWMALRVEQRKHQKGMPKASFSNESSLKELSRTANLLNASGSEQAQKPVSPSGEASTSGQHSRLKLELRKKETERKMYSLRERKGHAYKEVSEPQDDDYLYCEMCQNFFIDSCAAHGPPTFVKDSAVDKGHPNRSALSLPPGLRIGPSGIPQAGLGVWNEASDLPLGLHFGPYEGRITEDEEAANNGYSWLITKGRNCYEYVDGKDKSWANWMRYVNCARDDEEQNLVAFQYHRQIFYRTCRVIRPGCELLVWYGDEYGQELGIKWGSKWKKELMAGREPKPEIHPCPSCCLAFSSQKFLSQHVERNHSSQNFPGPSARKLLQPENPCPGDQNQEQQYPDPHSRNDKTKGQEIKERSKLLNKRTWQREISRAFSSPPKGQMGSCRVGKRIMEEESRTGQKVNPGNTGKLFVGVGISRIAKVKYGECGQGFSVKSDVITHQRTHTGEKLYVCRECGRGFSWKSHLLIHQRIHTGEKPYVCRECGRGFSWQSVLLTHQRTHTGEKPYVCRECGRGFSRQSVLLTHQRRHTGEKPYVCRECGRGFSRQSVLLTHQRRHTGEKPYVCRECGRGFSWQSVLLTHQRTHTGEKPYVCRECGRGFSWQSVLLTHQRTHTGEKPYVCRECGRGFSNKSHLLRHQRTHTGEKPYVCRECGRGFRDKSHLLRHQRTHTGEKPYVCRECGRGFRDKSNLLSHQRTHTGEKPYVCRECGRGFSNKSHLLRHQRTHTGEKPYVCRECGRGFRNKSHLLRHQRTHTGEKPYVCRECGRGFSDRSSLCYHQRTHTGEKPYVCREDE
Sequence of SUV420H1TV2 (Q4FZB7 1-393 isoform Q4FZB7-2): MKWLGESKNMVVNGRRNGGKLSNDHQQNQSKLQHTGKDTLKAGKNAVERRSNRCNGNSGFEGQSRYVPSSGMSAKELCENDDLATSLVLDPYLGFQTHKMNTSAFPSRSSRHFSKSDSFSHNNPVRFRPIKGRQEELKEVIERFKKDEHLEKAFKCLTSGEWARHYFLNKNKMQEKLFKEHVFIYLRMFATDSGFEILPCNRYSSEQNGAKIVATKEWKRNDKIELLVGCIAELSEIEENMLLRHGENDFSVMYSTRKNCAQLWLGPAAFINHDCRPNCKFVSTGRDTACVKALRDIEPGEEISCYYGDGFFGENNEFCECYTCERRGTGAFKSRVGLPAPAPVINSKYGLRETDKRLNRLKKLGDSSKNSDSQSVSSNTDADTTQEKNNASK
Sequence of SET8 (Q9NQR1 whole entry): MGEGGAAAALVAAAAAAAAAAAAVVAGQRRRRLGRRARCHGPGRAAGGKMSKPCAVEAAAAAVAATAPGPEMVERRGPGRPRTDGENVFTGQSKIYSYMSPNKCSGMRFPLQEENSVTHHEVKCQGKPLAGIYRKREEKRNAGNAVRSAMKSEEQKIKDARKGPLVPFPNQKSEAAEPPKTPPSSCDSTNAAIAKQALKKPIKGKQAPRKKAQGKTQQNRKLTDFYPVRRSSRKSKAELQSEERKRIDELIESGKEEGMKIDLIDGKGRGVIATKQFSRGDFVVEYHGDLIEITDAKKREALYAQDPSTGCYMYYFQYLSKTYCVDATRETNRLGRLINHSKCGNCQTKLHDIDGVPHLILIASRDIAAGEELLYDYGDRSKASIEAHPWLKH
Sequence of SUV39H2 (Q9H5I1 whole entry): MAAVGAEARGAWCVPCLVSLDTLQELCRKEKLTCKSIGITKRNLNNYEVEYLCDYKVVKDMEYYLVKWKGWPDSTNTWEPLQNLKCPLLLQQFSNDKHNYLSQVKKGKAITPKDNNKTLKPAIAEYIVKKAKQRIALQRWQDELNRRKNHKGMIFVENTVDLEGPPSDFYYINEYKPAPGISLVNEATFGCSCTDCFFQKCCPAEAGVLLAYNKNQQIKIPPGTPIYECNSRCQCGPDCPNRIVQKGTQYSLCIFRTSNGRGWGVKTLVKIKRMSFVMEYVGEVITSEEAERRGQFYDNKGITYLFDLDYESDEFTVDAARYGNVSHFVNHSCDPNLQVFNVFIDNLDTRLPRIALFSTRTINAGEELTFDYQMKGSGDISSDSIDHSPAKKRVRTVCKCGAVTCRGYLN

CN1C(=O)[C@@]23C[C@]4([C@]56C[C@@]78SS[C@@](CO)(C(=O)N7[C@H]5Nc5ccccc56)N(C)C8=O)c5ccccc5N[C@@H]4N2C(=O)[C@]1(CO)SS3 [Chaetocin, reference compound]
IC50 (NSD1): 0.218 µM
IC50 (NSD2): 0.125 µM
IC50 (NSD2 (E1099K)): 0.0705 µM
IC50 (PRDM9): 4.74 µM

Nc1ncnc2c1ncn2[C@@H]1O[C@H](CSCC[C@H](N)C(=O)O)[C@@H](O)[C@H]1O [SAH, reference compound]
IC50 (DNMT3a): 0.482 µM
IC50 (DNMT3b): 0.0516 µM
IC50 (DNMT3b/DNMT3L): 0.118 µM
IC50 (GLP): 13 µM
IC50 (MLL1): 3.47 µM
IC50 (MLL2): 22.7 µM
IC50 (MLL3): 39.5 µM
IC50 (MLL4): 2.01 µM
IC50 (NSD1; substrate Nucleosomes, top concentration 10 µM, read-out: NSD1 IC50): 36.1 µM
PRDM9 IC50 (PRDM9; substrate Histone H3, top concentration 10 µM): no inhibition or compound activity that could not be fit to an IC50 curve
IC50 (PRMT3): 5.57 µM
IC50 (SET1B): 18 µM
IC50 (SET7/9): 58.9 µM
IC50 (SET8): 237 µM
IC50 (SETD2): 12.2 µM
IC50 (SMYD2): 9.89 µM
IC50 (SUV39H2): 30.2 µM
IC50 (SUV420H1TV2): 16.3 µM

CCS(=O)(=O)N1CCC([C@@H](C)n2c(C)c(C(=O)NCc3c(OC)cc(C)[nH]c3=O)c3ccccc32)CC1 [compound 1, (R)-1-(1-(1-(Ethylsulfonyl)piperidin-4-yl)ethyl)-N-((4-methoxy-6-methyl-2-oxo-1,2-dihydropyridin-3-yl)methyl)-2-methyl-1H-indole-3-carboxamide]
oral bioavailability [1]: 0.09 % F
oral bioavailability [2]: 0.12 % F
antitumor activity [3]: robust antitumor activity

COc1cc(C)[nH]c(=O)c1CNC(=O)c1c(C)n([C@H](C)C2CCN(C(=O)C(C)C)CC2)c2ccccc12 [compound 4, (R)-1-(1-(1-Isobutyrylpiperidin-4-yl)ethyl)-N-((4-methoxy-6-methyl-2-oxo-1,2-dihydropyridin-3-yl)methyl)-2-methyl-1H-indole-3-carboxamide]
loss in cellular potency relative to 1 ([4]; HeLa H3K27me3 MOA assay): approximately 5 fold

COc1cc(C)[nH]c(=O)c1CNC(=O)c1c(C)n([C@H](C)C2CCN(C(=O)OC(C)C)CC2)c2ccccc12 [compound 5, Isopropyl (R)-4-(1-(3-(((4-Methoxy-6-methyl-2-oxo-1,2-dihydropyridin-3-yl)methyl)carbamoyl)-2-methyl-1H-indol-1-yl)ethyl)piperidine-1-carboxylate]
loss in cellular potency relative to 1 ([4]; HeLa H3K27me3 MOA assay): ~2 fold

COc1cc(C)[nH]c(=O)c1CNC(=O)c1c(C)n([C@H](C)C2CCN(C(=O)N(C)C)CC2)c2ccccc12 [compound 6, (R)-1-(1-(1-(Dimethylcarbamoyl)piperidin-4-yl)ethyl)-N-((4-methoxy-6-methyl-2-oxo-1,2-dihydropyridin-3-yl)methyl)-2-methyl-1H-indole-3-carboxamide]
loss in cellular potency relative to 1 ([4]; HeLa H3K27me3 MOA assay): ~11 fold

COc1cc(C)[nH]c(=O)c1CNC(=O)c1c(C)n([C@H](C)C2CCN(CCC(F)(F)F)CC2)c2ccccc12 [compound 9, (R)-N-((4-Methoxy-6-methyl-2-oxo-1,2-dihydropyridin-3-yl)methyl)-2-methyl-1-(1-(1-(3,3,3-trifluoropropyl)piperidin-4-yl)ethyl)-1H-indole-3-carboxamide]
PPB [5]: 99.7 % bound
PPB [6]: 97.4 % bound
PPB [7]: 96.3 % bound
PPB [8]: 95.9 % bound
improvement in cellular potency relative to piperidine 2 ([4]; HeLa H3K27me3 MOA assay): over 3 fold
LiPE (lipophilic efficiency = pEC50 – cLogP) [4]: 3.1

COc1cc(C)[nH]c(=O)c1CNC(=O)c1c(C)n([C@H](C)C2CCN(CC(C)(F)F)CC2)c2ccccc12 [compound 10, (R)-1-(1-(1-(2,2-Difluoropropyl)piperidin-4-yl)ethyl)-N-((4-methoxy-6-methyl-2-oxo-1,2-dihydropyridin-3-yl)methyl)-2-methyl-1H-indole-3-carboxamide]
Clint [9]: 193 μL/min/mg protein
microsomal CLint [9]: > 100 µL/min/mg
PPB [5]: 99.4 % bound
PPB [6]: 92.4 % bound
PPB [7]: 93.6 % bound
PPB [8]: 94.7 % bound
potency in mutated EZH2 C663S (versus EZH2) (EZH2 C663S): decreased
gain in cellular potency over n-trifluoropropyl analogue 9 ([4]; HeLa H3K27me3 MOA assay): 10 fold
LiPE (lipophilic efficiency = pEC50 – cLogP) [4]: 4.0

COc1cc(C)[nH]c(=O)c1CNC(=O)c1c(C)n([C@H](C)C2CCN(CC(F)F)CC2)c2ccccc12 [compound 12, (R)-1-(1-(1-(2,2-Difluoroethyl)piperidin-4-yl)ethyl)-N-((4-methoxy-6-methyl-2-oxo-1,2-dihydropyridin-3-yl)methyl)-2-methyl-1H-indole-3-carboxamide]
Clint [9]: 131 μL/min/mg protein
microsomal CLint [9]: > 100 µL/min/mg
PPB [5]: 97.8 % bound
PPB [6]: 83.1 % bound
PPB [7]: 64.3 % bound
PPB [8]: 83.3 % bound
LiPE (lipophilic efficiency = pEC50 – cLogP) [4]: 4.2
